Measurements taken from US6608082B1, “Treatment of erectile dysfunction using isoquinoline compound melanocortin receptor ligands” (Lion Bioscience AG, priority 1998, dated 2003).

Key:
TNF-α = experiment: Reduction of lipopolysaccharide-induced tumor necrosis factor levels in mice; assay type: in vivo, BALB/c female mice; settings: for % TNF-α Inhibtion, IP 30: 30 μg per mouse; for % TNF-α Inhibtion, IP 100: 100 μg per mouse; for decrease of TNF-α levels: LPS treated mice; for % TNF-α Inhibtion, Oral 600: 600 μg per mouse
Procedure: BALB/c female mice weighing approximately 20 g were placed into a control group and a treated group. Five mg/kg of LPS in 0.9% saline was administered (100 μl to give 100 μg LPS per mouse) by intraperitoneal (IP) injection to all mice. Mice in the treatment group received either 30, 100, 300 or 600 μg of various isoquinoline compounds per mouse in a volume of 100 μl of PBS. Control mice received 100 μl of saline alone. One minute after initial injections all mice received the LPS injection. As a positive control, 100 μg of HP 228 was injected per mouse.
Blood samples were collected from the orbital sinus of treated and control mice 90 minutes or 105 minutes after LPS administration. The plasma was separated by centrifugation at 3000×g for 5 min and stored at −20° C. Samples were thawed and diluted, if TNF-α concentration was greater than 3200 pg/ml, with PBS containing 1% bovine serum albumin, 10% donor horse serum, 1% normal mouse serum, 0.05% TWEEN-20 and 0.05% thimerosal. A 100 μl sample of plasma was assayed by ELISA for TNF-α. Briefly, ELISA plates were coated with hamster anti-mouse TNF-α antibody (Genzyme; Cambridge Mass.). Samples or known concentrations of TNF-α were added to the coated plates and incubated for 2 hr at 37° C. Plates were washed and subsequently incubated with biotinylated rabbit anti-mouse TNG-α for 1 hr at 37° C. Plates were washed and incubated with streptavidin-HRP for 1 hr at 37° C., and HRP activity was detected with hydrogen peroxide and o-phenylenediamine (OPD) using standard immunoassay procedures.
The mean (±SEM) TNF-α level in five mice from each group was determined and the percent reduction in TNF-α levels was calculated.

MCR-1 [1] = molecular target: T1, MCR-1 (Homo sapiens, UniProt Q01726); experiment: cAMP assay for melanocortin receptors, HEK 293 cells expressing MCR-1; assay type: cell-based; settings: for EC50: 50% of maximal cAMP production, read-out: MC-1 EC50 (cAMP); for MC-1 Max (pmole) cAMP produced: maximum amount of cAMP
T1 construct: expressed in transfected cells; host or cells: HEK 293
Procedure: (§1) HEK 293 cells expressing MCR-1, MCR-3, MCR-4 and MCR-5 were used (see Example II). Cells were plated at 20,000 cells per well in a 96-well plate coated with collagen. The next day, cells were pretreated with 75 μl of 0.4 mM 3-isobutyl-1-methylxanthine (IBMX) in low serum medium containing DMEM, 25 mM HEPES, non-essential amino acids, vitamins, 100 units/ml penicillin, 100 μg/ml streptomycin and 0.1% COSMIC CALF SERUM. IBMX is an inhibitor of cAMP phosphodiesterase. The pretreatment was carried out for 10 min at 37° C.
(§2) Following pretreatment, 25 μl of diluted isoquinoline compound was added to the wells, and cells were incubated for 15 min at 37° C. Cells were lysed by adding 25 μl saponin lysis buffer and incubating 2 to 5 min. Plates were covered and stored at −20° C.
(§3) cAMP concentration was determined by ELISA. Briefly, 96 well ELISA plates were coated with goat anti-cAMP antibody in PBS for 12 to 72 hr at 4° C. 50 μl of sample was mixed with 50 μl of cAMP ELISA buffer containing 1% bovine serum albumin, 10% heat-inactivated donor horse serum, 1% normal mouse serum and 0.05% TWEEN-20 in PBS, and the diluted sample was added to the coated ELISA plate. Standards of known concentrations of cAMP were added to separate wells. 25 μl of 16 ng/ml cAMP-conjugated horse radish peroxidase (HRP) (cAMP-HRP) was added to each well, and the plates were […] at room temperature. Plates were washed and the binding of cAMP-HRP was detected with 3,3′,5,5′-tetramethylbenzidine (TMB) and hydrogen peroxide using standard immunoassay procedures.
(§4) Various isoquinoline compounds were tested for their ability to activate MC receptor by measuring cAMP as described in Example III.

MCR-1 [2] = molecular target: T1, MCR-1; experiment: Melanocortin receptor binding assay, competition with 125I-HP 467, HEK 293 cells expressing hMCR-1; settings: for % Disp. of 125I-HP 467 (first of duplicate) / % Disp. of 125I-HP 467 (second of duplicate): 10 μM isoquinoline compound; for % Disp. of 125I-HP 467 (first of duplicate): HEK 293 cells expressing MCR-1, duplicate 1; for % Disp. of 125I-HP 467 (second of duplicate): HEK 293 cells expressing MCR-1, duplicate 2; for effectiveness as MC receptor ligand: binding to MC receptors, Table 1
Procedure, shortened: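 Intact-cell competition binding, 2.5 hr at 37 °C, in PBS/10% calf serum/1 mM CaCl2; hMCR-4 cells at 4×10^3 per tube, hMCR-1 cells at 2×10^4 per tube. Filtration on BSA/CaCl2-soaked GF/B, cold 50 mM Tris pH 7.4 washes, scintillation count.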

MCR-4 = molecular target: T2, MCR-4 (Homo sapiens, UniProt P32245); experiment: cAMP assay for melanocortin receptors, HEK 293 cells expressing MCR-4; assay type: cell-based; settings: for MC-4 Max (pmole) cAMP produced: maximum amount of cAMP; for EC50: read-out: MC-4 EC50 (cAMP)
T2 construct: expressed in transfected cells; host or cells: HEK 293
Procedure: as §1, §2, §3, §4

MCR-5 = molecular target: T3, MCR-5 (Homo sapiens, UniProt P33032); experiment: cAMP assay for melanocortin receptors, HEK 293 cells expressing MCR-5; assay type: cell-based; settings: read-out: MC-5 EC50 (cAMP)
T3 construct: expressed in transfected cells; host or cells: HEK 293
Procedure: as §1, §2, §3, §4

MCR-3 = molecular target: T4, MCR-3 (Homo sapiens, UniProt P41968); experiment: cAMP assay for melanocortin receptors, HEK 293 cells expressing MCR-3; assay type: cell-based; settings: read-out: MC-3 EC50 (cAMP)
T4 construct: expressed in transfected cells; host or cells: HEK 293
Procedure: as §1, §2, §3, §4

[3] = plasma 90 or 105 minutes after LPS, mean ± SEM
[4] = 300 μg per mouse, plasma 90 or 105 minutes after LPS, mean ± SEM
[5] = Oral, plasma 90 or 105 minutes after LPS, mean ± SEM

T3 sequence (P33032 whole entry): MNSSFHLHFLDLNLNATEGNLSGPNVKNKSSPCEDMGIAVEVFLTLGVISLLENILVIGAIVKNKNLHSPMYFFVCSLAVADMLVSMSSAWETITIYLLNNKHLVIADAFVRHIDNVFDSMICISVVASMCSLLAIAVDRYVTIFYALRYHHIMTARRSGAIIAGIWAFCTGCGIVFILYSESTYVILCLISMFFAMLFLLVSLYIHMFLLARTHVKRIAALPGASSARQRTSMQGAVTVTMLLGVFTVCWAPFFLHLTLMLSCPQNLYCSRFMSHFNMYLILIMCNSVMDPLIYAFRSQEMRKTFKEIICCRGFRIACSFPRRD
T4 sequence (P41968 whole entry): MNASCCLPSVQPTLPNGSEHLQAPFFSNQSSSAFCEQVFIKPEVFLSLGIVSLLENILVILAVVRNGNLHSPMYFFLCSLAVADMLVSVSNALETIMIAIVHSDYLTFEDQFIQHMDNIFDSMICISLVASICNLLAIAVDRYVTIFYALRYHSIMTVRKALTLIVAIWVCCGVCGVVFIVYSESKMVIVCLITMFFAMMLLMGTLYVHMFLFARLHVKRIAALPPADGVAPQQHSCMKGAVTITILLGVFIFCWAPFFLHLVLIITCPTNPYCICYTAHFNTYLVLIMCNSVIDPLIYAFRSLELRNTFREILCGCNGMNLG
T1 sequence (Q01726 whole entry): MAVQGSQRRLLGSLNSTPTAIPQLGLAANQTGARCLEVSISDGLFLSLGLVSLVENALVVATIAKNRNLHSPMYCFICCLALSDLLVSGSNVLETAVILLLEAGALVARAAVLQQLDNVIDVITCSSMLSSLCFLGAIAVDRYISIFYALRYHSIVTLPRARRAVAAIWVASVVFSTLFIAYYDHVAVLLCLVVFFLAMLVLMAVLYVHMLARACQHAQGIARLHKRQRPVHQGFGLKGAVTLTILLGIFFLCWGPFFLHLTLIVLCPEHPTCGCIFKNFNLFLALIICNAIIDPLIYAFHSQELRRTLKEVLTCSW
T2 sequence (P32245 whole entry): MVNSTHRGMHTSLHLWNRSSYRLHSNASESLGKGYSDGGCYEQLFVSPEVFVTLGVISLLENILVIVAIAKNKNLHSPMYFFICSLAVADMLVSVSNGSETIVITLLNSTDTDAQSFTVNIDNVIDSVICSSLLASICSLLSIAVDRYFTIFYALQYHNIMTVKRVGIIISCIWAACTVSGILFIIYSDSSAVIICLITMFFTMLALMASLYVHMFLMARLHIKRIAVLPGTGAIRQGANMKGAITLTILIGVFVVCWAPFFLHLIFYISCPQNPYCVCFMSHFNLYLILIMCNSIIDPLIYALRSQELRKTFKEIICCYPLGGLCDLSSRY

CNC(CN)CCCCN1Cc2ccccc2C(CNC2CCCCC2)C1c1ccc(Cl)cc1Cl (centres unmarked) [TRG 2405-190]
% TNF-α Inhibtion, IP 30 (TNF-α; [3]): 70 ± 11 %
% TNF-α Inhibtion, IP 100 (TNF-α; [3]): −6 ± 7%
% TNF-α Inhibtion, IP 300 (TNF-α; [4]): 83 ± 11 %
decrease of TNF-α levels (TNF-α): particularly effective at decreasing TNF-α
EC50 (MCR-1 [1]): 8.52 µM
MC-1 Max (pmole) cAMP produced (MCR-1 [1]): 33.56 pmol
% Disp. of 125I-HP 467 (first of duplicate) (MCR-1 [2]): 79.4%
% Disp. of 125I-HP 467 (second of duplicate) (MCR-1 [2]): 81%
effectiveness as MC receptor ligand (MCR-1 [2]): particularly effective MC receptor ligands
MC-4 Max (pmole) cAMP produced (MCR-4): 100.48 pmol
EC50 (MCR-4): 46.3 µM

CNC(CN)CCCCN1Cc2ccccc2C(CNC2CCCCC2)C1c1ccc(N(C)C)cc1 (centres unmarked) [TRG 2405-235]
% TNF-α Inhibtion, IP 30 (TNF-α; [3]): 8 ± 7%
% TNF-α Inhibtion, IP 100 (TNF-α; [3]): 39 ± 7%
% TNF-α Inhibtion, IP 300 (TNF-α; [4]): 50 ± 9%
EC50 (MCR-1 [1]): 29.9 µM
MC-1 Max (pmole) cAMP produced (MCR-1 [1]): 17.07 pmol
% Disp. of 125I-HP 467 (first of duplicate) (MCR-1 [2]): 64.2%
% Disp. of 125I-HP 467 (second of duplicate) (MCR-1 [2]): 26.3%
EC50 (MCR-4): > 50 µM

CNC(CN)CCCCN1Cc2ccccc2C(CNC2CCCCC2)C1c1ccc(C(F)(F)F)cc1 (centres unmarked) [TRG 2405-238]
EC50 (MCR-5): > 50 µM
% TNF-α Inhibtion, IP 30 (TNF-α; [3]): 19 ± 7%
% TNF-α Inhibtion, IP 100 (TNF-α; [3]): 73 ± 1 %
% TNF-α Inhibtion, IP 300 (TNF-α; [4]): 84 ± 18 %
% TNF-α Inhibtion, Oral 600 (TNF-α; [5]): 6 ± 28%
EC50 (MCR-1 [1]): 19.9 µM
MC-1 Max (pmole) cAMP produced (MCR-1 [1]): 29.82 pmol
% Disp. of 125I-HP 467 (first of duplicate) (MCR-1 [2]): 76.8%
% Disp. of 125I-HP 467 (second of duplicate) (MCR-1 [2]): 72.8%
EC50 (MCR-4): > 50 µM
EC50 (MCR-3): > 50 µM

CCNc1ccc(C2C(CNC3CCCCC3)c3ccccc3CN2CCCCC(CN)NC)cc1 (centres unmarked) [TRG 2405-239]
EC50 (MCR-5): > 50 µM
% TNF-α Inhibtion, IP 30 (TNF-α; [3]): 13 ± 8%
% TNF-α Inhibtion, IP 100 (TNF-α; [3]): 10 ± 6%
% TNF-α Inhibtion, IP 300 (TNF-α; [4]): 66 ± 9 %
% TNF-α Inhibtion, Oral 600 (TNF-α; [5]): 9 ± 14%
EC50 (MCR-1 [1]): 3.67 µM
MC-1 Max (pmole) cAMP produced (MCR-1 [1]): 20.6 pmol
% Disp. of 125I-HP 467 (first of duplicate) (MCR-1 [2]): 86.6%
% Disp. of 125I-HP 467 (second of duplicate) (MCR-1 [2]): 85.2%
effectiveness as MC receptor ligand (MCR-1 [2]): particularly effective MC receptor ligands
EC50 (MCR-4): > 50 µM
EC50 (MCR-3): > 50 µM

CNC(CN)CCCCN1Cc2ccccc2C(CNC2CCCCC2)C1c1ccc(-c2ccccc2)cc1 (centres unmarked) [TRG 2405-241]
EC50 (MCR-5): > 50 µM
% TNF-α Inhibtion, IP 30 (TNF-α; [3]): 26 ± 15%
% TNF-α Inhibtion, IP 100 (TNF-α; [3]): 75 ± 3 %
% TNF-α Inhibtion, IP 300 (TNF-α; [4]): 45 ± 9%
decrease of TNF-α levels (TNF-α): particularly effective at decreasing TNF-α
% TNF-α Inhibtion, Oral 300 (TNF-α; Oral, 300 μg per mouse, plasma 90 or 105 minutes after LPS, mean ± SEM): 38 ± 9 %
% TNF-α Inhibtion, Oral 600 (TNF-α; [5]): 74 ± 8 %
EC50 (MCR-1 [1]): 10.4 µM
MC-1 Max (pmole) cAMP produced (MCR-1 [1]): 66.67 pmol
% Disp. of 125I-HP 467 (first of duplicate) (MCR-1 [2]): 89.5%
% Disp. of 125I-HP 467 (second of duplicate) (MCR-1 [2]): 88.8%
specificity for at least one MC receptor over another MC receptor (MCR-1 [2]; MCR-1 versus MCR-4 binding): about 10 fold
effectiveness as MC receptor ligand (MCR-1 [2]): particularly effective MC receptor ligands
MC-4 Max (pmole) cAMP produced (MCR-4): 32.32 pmol
EC50 (MCR-4): 28.5 µM
EC50 (MCR-3): > 50 µM

CNC(CN)CCCCN1Cc2ccccc2C(CNC2CCCCC2)C1c1ccc(Br)cc1 (centres unmarked) [TRG 2405-242]
EC50 (MCR-5): > 50 µM
% TNF-α Inhibtion, IP 30 (TNF-α; [3]): 21 ± 8%
% TNF-α Inhibtion, IP 100 (TNF-α; [3]): 60 ± 4 %
% TNF-α Inhibtion, IP 300 (TNF-α; [4]): 68 ± 5 %
EC50 (MCR-1 [1]): 13.1 µM
MC-1 Max (pmole) cAMP produced (MCR-1 [1]): 55.89 pmol
% Disp. of 125I-HP 467 (first of duplicate) (MCR-1 [2]): 86%
% Disp. of 125I-HP 467 (second of duplicate) (MCR-1 [2]): 83.4%
EC50 (MCR-4): > 50 µM
EC50 (MCR-3): > 50 µM
